The text below walks through data of patent US20250171452A1 (Viscient Bio, Inc., priority 2022, published 2025).

pIC50: −log10 of the molar value. Read-outs that look alike come from different tables or passages of the source. A value given as a limit tells only on which side of the number the result lay.

The target in one experiment is IDO2 (Homo sapiens (Human), UniProt Q6ZQW0). The experiment can be described thus: Cellular IDO2 assay, doxycycline and 5-methoxy-L-tryptophan medium, colorimetric. The experiment is classed as cell-based.
The target of experiment [1] is Indoleamine 2,3-dioxygenase 1 (IDO1) (Homo sapiens (Human), UniProt P14902). The experiment can be described thus: Cellular IDO1 assay: kynurenine production in IFN-γ-stimulated HeLa cells, colorimetric.
Setting [2] is: cellular level, 72 h incubation, signal at 480 nm.

Sequence of Indoleamine 2,3-dioxygenase 1 (IDO1) (P14902 whole entry): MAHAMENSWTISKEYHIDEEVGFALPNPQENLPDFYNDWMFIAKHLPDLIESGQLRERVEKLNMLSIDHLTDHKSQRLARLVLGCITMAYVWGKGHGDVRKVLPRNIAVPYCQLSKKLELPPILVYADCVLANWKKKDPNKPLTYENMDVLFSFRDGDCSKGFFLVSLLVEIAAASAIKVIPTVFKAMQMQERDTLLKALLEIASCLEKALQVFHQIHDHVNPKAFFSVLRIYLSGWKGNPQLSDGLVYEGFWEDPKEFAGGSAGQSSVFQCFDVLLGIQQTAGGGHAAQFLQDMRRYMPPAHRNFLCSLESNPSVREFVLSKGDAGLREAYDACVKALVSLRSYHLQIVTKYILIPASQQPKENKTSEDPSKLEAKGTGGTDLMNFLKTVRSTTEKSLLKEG
Sequence of IDO2 (Q6ZQW0 whole entry, species assumed): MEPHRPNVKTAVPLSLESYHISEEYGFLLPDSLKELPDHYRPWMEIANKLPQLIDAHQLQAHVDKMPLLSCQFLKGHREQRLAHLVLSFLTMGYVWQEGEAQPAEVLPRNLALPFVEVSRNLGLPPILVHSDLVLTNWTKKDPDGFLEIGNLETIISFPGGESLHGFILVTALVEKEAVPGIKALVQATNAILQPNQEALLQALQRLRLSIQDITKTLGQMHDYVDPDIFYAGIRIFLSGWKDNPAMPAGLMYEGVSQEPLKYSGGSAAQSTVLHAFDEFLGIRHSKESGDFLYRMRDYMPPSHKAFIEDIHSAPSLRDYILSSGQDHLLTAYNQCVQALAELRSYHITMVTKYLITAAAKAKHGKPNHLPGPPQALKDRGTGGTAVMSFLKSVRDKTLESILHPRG
Procedure for IDO2: IDO2 inhibition at the cellular level was evaluated in vitro using the following procedure.
Using cell culture medium, the volume of the suspension was adjusted to achieve a cell concentration of 20,000 cells/well (90 uL/well).
5-Methoxy-L-tryptophan powder was dissolved in the culture medium to a concentration of 10 mM, then filtered and sterilized with a 0.22 um filter. Doxycycline powder was dissolved in ddH2O to a concentration of 100 ug/ml, then filtered and sterilized with a 0.22 um filter. 5-aminolevulinic acid powder was dissolved in ddH2O to a concentration of 400 mM, then filtered and sterilized with a 0.22 um filter. A 2× Assay medium was then by diluting the doxycycline (from 100 ug/ml to 2 ug/ml) and 5-Methoxy-L-tryptophan (from 10 mM to 5 mM) in culture medium. The 5-aminolevulinic acid solution was also added to the solution (diluting the concentration from 400 mM to 2 mM) to get a 2× working solution.
After incubation, plates and reagents were allows to equilibrate to room temperature. […] Trichloroacetic acid powder was dissolved in ddH2O to prepare 6.1N trichloroacetic acid. […] The plates were incubated at 55° C. for 40 minutes, and then centrifuged for 10 min at 2500 rpm. […] Measurement of the signal was performed using Envision at 480 nm. Throughout the foregoing process, care was taken to prevent exposure to light.

For `O=C1c2cc([N+](=O)[O-])ccc2-n2c1nc1cccc(F)c1c2=O` [Compound 37, 1-Fluoro-8-nitroindolo[2,1-b]quinazoline-6,12-dione], the pIC50 (against IDO2; in experiment [1]) was greater than 7.30 in each case.

For `Cc1cc(F)cc2c(=O)n3c(nc12)C(=O)c1cc([N+](=O)[O-])ccc1-3` [Compound 49, 2-Fluoro-4-methyl-8-nitroindolo[2,1-b]quinazoline-6,12-dione], the values for the pIC50 (on IDO2 (setting [2]); in experiment [1]) were greater than 7.30 and 6.30 to 7.30, respectively.

For the compound `O=c1c2c(Cl)cccc2[nH]c2cc3cc([N+](=O)[O-])ccc3n12` [Compound 39, 1-Chloro-8-nitroindolo[2,1-b]quinazolin-12(5H)-one], the figures for the pIC50 (at IDO2 (setting [2]); in experiment [1]) were greater than 7.30 and 6.30 to 7.30, respectively.

Take `O=C1c2cc(Br)ccc2-n2c1nc1cc(F)ccc1c2=O` [Compound 18, 8-Bromo-3-fluoroindolo[2,1-b]quinazoline-6,12-dione]: the pIC50 on IDO2 (setting [2]) was 6.30 to 7.30; in experiment [1], less than 6.30.

For the compound `O=C1c2cc([N+](=O)[O-])ccc2-n2c1nc1cc(F)ccc1c2=O` [Compound 2, 3-Fluoro-8-nitroindolo[2,1-b]quinazoline-6,12-dione], the pIC50 (at IDO2 (setting [2]); in experiment [1]) was greater than 7.30 in each case.

On to `Cc1cc(C)c2nc3n(c(=O)c2c1)-c1ccc([N+](=O)[O-])cc1C3=O` [Compound 48, 2,4-Dimethyl-8-nitroindolo[2,1-b]quinazoline-6,12-dione], for which the pIC50 (at IDO2 (setting [2]); in experiment [1]) was greater than 7.30 each time.

For the compound `O=C1c2cc([N+](=O)[O-])ccc2-n2c1nc1c(Br)cccc1c2=O` [Compound 43, 4-Bromo-8-nitroindolo[2,1-b]quinazoline-6,12-dione], the pIC50 is greater than 7.30 at IDO2 (setting [2]) and 6.30 to 7.30 in experiment [1].

On to `NCCNC(=O)c1ccc2c(c1)C(=O)c1nc3cc(Cl)ccc3c(=O)n1-2` [Compound 10, N-(2-Aminoethyl)-3-chloro-6,12-dioxo-6,12-dihydroindolo[2,1-b]quinazoline-8-carboxamide], for which the pIC50 was 6.30 to 7.30 against IDO2 (setting [2]) and less than 6.30 in experiment [1].

Turning to `N#Cc1ccc2c(c1)C(=O)c1nc3cc(F)ccc3c(=O)n1-2` [Compound 12, 3-Fluoro-6,12-dioxo-6,12-dihydroindolo[2,1-b]quinazoline-8-carbonitrile], the pIC50 (against IDO2 (setting [2]); in experiment [1]) was greater than 7.30 each time.

Consider `Nc1ccc2c(=O)n3c(nc2c1)C(=O)c1cc([N+](=O)[O-])ccc1-3` [Compound 16, 3-Amino-8-nitroindolo[2,1-b]quinazoline-6,12-dione], for which the pIC50 against IDO2 (setting [2]) was greater than 7.30; in experiment [1], 6.30 to 7.30.

As to `Cc1cccc2nc3n(c(=O)c12)-c1ccc([N+](=O)[O-])cc1C3=O` [Compound 38, 1-Methyl-8-nitroindolo[2,1-b]quinazoline-6,12-dione], the pIC50 (on IDO2 (setting [2]); in experiment [1]) was greater than 7.30 in each case.

For the compound `O=C1c2cc([N+](=O)[O-])ccc2-n2c1nc1c(F)cccc1c2=O` [Compound 41, 4-Fluoro-8-nitroindolo[2,1-b]quinazoline-6,12-dione], the pIC50 was greater than 7.30 at IDO2 (setting [2]) and 6.30 to 7.30 in experiment [1].

For `NCCNC(=O)c1ccc2c(c1)C(=O)c1nc3cc(Cl)cc(Cl)c3c(=O)n1-2` [Compound 19, N-(2-Aminoethyl)-1,3-dichloro-6,12-dioxo-6,12-dihydroindolo[2,1-b]quinazoline-8-carboxamide], the pIC50 (at IDO2 (setting [2]); in experiment [1]) was less than 6.30 throughout.

As to `NC(=O)c1ccc2c(c1)C(=O)c1nc3cc(Cl)ccc3c(=O)n1-2` [Compound 8, 3-Chloro-6,12-dioxo-6,12-dihydroindolo[2,1-b]quinazoline-8-carboxamide], the pIC50 (at IDO2 (setting [2]); in experiment [1]) was 6.30 to 7.30 in each case.

Consider `NC(=O)c1ccc2c(c1)C(=O)c1nc3cc(Cl)cc(Cl)c3c(=O)n1-2` [Compound 23, 1,3-Dichloro-6,12-dioxoindolo[2,1-b]quinazoline-8-carboxamide], for which the pIC50 (at IDO2 (setting [2]); in experiment [1]) was 6.30 to 7.30 throughout.

As to `O=C1c2cc(F)ccc2-n2c1nc1c(Br)cccc1c2=O` [Compound 44, 4-Bromo-8-fluoroindolo[2,1-b]quinazoline-6,12-dione], the results for the negative logarithm of the IC50 (pIC50) (against IDO2 (setting [2]); in experiment [1]) were greater than 7.30 and 6.30 to 7.30, respectively.

Consider `N#Cc1ccc2c(c1)C(=O)c1nc3c(Br)cccc3c(=O)n1-2` [Compound 46, 4-bromo-6,12-dioxo-6,12-dihydroindolo[2,1-b]quinazoline-8-carbonitrile], for which the pIC50 at IDO2 (setting [2]) was greater than 7.30; in experiment [1], 6.30 to 7.30.

Turning to `NS(=O)(=O)NCCNC(=O)c1ccc2c(c1)C(=O)c1nc3cc(Cl)ccc3c(=O)n1-2` [Compound 13, 3-Chloro-6,12-dioxo-N-(2-(sulfamoylamino)ethyl)-6,12-dihydroindolo[2,1-b]quinazoline-8-carboxamide], the pIC50 (against IDO2 (setting [2]); in experiment [1]) was less than 6.30 each time.

As to `O=[N+]([O-])c1ccc2c(c1)C(O)C1Nc3cc(F)ccc3CN21` (centres unmarked) [Compound 21, 3-Fluoro-8-nitro-5H,5aH,6H,12H-indolo[2,1-b]quinazolin-6-ol], the pIC50 (at IDO2 (setting [2]); in experiment [1]) was greater than 7.30 throughout.

For the compound `Cc1ccc2c(=O)n3c(nc2c1)C(=O)c1cc([N+](=O)[O-])ccc1-3` [Compound 1, 3-Methyl-8-nitroindolo[2,1-b]quinazoline-6,12-dione], the pIC50 at IDO2 (setting [2]) was 6.30 to 7.30; in experiment [1], greater than 7.30.

Turning to `COC(=O)c1ccc2c(c1)C(=O)c1nc3cc(Cl)ccc3c(=O)n1-2` [Compound 6, Methyl 3-chloro-6,12-dioxo-6,12-dihydroindolo[2,1-b]quinazoline-8-carboxylate], the pIC50 (at IDO2 (setting [2]); in experiment [1]) was 6.30 to 7.30 in each case.

As to `CN(C)C(=O)c1ccc2c(c1)C(=O)c1nc3cc(Cl)cc(Cl)c3c(=O)n1-2` [Compound 24, 1,3-Dichloro-N,N-dimethyl-6,12-dioxo-6,12-dihydroindolo[2,1-b]quinazoline-8-carboxamide], the pIC50 (on IDO2 (setting [2]); in experiment [1]) was 6.30 to 7.30 in each case.

On to `O=C1c2cc([N+](=O)[O-])ccc2-n2c1nc1c(Cl)cccc1c2=O` [Compound 36, 4-Chloro-8-nitroindolo[2,1-b]quinazoline-6,12-dione], for which the pIC50 against IDO2 (setting [2]) was greater than 7.30; in experiment [1] it was 6.30 to 7.30.

Regarding `Cc1ccc(F)c2c(=O)n3c(nc12)C(=O)c1cc([N+](=O)[O-])ccc1-3` [Compound 40], the pIC50 (on IDO2 (setting [2]); in experiment [1]) was 6.30 to 7.30 each time.

Consider `CC(C)(C)OC(=O)N1CCN(C(=O)c2ccc3c(c2)C(=O)c2nc4cc(Cl)cc(Cl)c4c(=O)n2-3)CC1` [Compound 26, tert-Butyl 4-(1,3-dichloro-6,12-dioxo-6,12-dihydroindolo[2,1-b]quinazoline-8-carbonyl)piperazine-1-carboxylate], for which the pIC50 is 6.30 to 7.30 against IDO2 (setting [2]) and less than 6.30 in experiment [1].

Regarding `NS(=O)(=O)NCCNC(=O)c1ccc2c(c1)C(=O)c1nc3cc(Cl)cc(Cl)c3c(=O)n1-2` [Compound 29, 1,3-Dichloro-6,12-dioxo-N-(2-(sulfamoylamino)ethyl)-6,12-dihydroindolo[2,1-b]quinazoline-8-carboxamide], the pIC50 (against IDO2 (setting [2]); in experiment [1]) was less than 6.30 in each case.

Consider `O=c1c2c(F)cc(F)cc2nc2n1-c1ccc([N+](=O)[O-])cc1C2` [Compound 34, 1,3-Difluoro-8-nitroindolo[2,1-b]quinazolin-12(6H)-one], for which the pIC50 on IDO2 (setting [2]) is 6.30 to 7.30; in experiment [1], less than 6.30.

With `CC(C)(C)OC(=O)Nc1ccc2c(=O)n3c(nc2c1)C(=O)c1cc([N+](=O)[O-])ccc1-3` [Compound 17, tert-Butyl (8-nitro-6,12-dioxo-6,12-dihydroindolo[2,1-b]quinazolin-3-yl)carbamate], the figures for the pIC50 (against IDO2 (setting [2]); in experiment [1]) were greater than 7.30 and 6.30 to 7.30, respectively.

As for `O=C1c2cc([N+](=O)[O-])ccc2-n2c1nc1cc(F)cc(F)c1c2=O` [Compound 11, 1,3-Difluoro-8-nitroindolo[2,1-b]quinazoline-6,12-dione], the pIC50 against IDO2 is greater than 7.30; in experiment [1], 6.30 to 7.30.

In the case of `O=C1c2cc([N+](=O)[O-])ccc2-n2c1nc1c(Br)cc(Cl)cc1c2=O` [Compound 47, 4-Bromo-2-chloro-8-nitroindolo[2,1-b]quinazoline-6,12-dione], the results for the negative logarithm of the IC50 (pIC50) (against IDO2 (setting [2]); in experiment [1]) were 6.30 to 7.30 and less than 6.30, respectively.

Turning to `CC(=O)Nc1ccc2c(c1)C(=O)c1nc3cc(Cl)ccc3c(=O)n1-2` [Compound 7, N-(3-Chloro-6,12-dioxo-6,12-dihydroindolo[2,1-b]quinazolin-8-yl)acetamide], the pIC50 (against IDO2 (setting [2]); in experiment [1]) was 6.30 to 7.30 in each case.

As to `O=C1c2cc(C(=O)N3CCNCC3)ccc2-n2c1nc1cc(Cl)cc(Cl)c1c2=O` [Compound 25, 1,3-dichloro-8-(piperazine-1-carbonyl)indolo[2,1-b]quinazoline-6,12-dione], the pIC50 (at IDO2 (setting [2]); in experiment [1]) was 6.30 to 7.30 throughout.

As to `N#Cc1ccc2c(c1)C(=O)c1nc3cc(Cl)ccc3c(=O)n1-2` [Compound 3, 3-Chloro-6,12-dioxo-6,12-dihydroindolo[2,1-b]quinazoline-8-carbonitrile], the pIC50 (on IDO2 (setting [2]); in experiment [1]) was greater than 7.30 in each case.

For `CS(=O)(=O)c1ccc2c(c1)C(=O)c1nc3cc(F)ccc3c(=O)n1-2` [Compound 14, 3-Fluoro-8-(methylsulfonyl)indolo[2,1-b]quinazoline-6,12-dione], the pIC50 on IDO2 (setting [2]) is greater than 7.30; in experiment [1] it was 6.30 to 7.30.

With `O=C1c2cc([N+](=O)[O-])ccc2-n2c1nc1c(Br)cc(F)cc1c2=O` [Compound 45, 4-Bromo-2-fluoro-8-nitroindolo[2,1-b]quinazoline-6,12-dione], the pIC50 (against IDO2 (setting [2]); in experiment [1]) was 6.30 to 7.30 throughout.

As for `O=C1c2cc(S(=O)(=O)Cc3ccccc3)ccc2-n2c1nc1cc(F)ccc1c2=O` [Compound 33, 8-(Benzylsulfonyl)-3-fluoroindolo[2,1-b]quinazoline-6,12-dione], the pIC50 (against IDO2 (setting [2]); in experiment [1]) was greater than 7.30 throughout.

In the case of `O=C(O)c1ccc2c(c1)C(=O)c1nc3cc(Cl)ccc3c(=O)n1-2` [Compound 4, 3-Chloro-6,12-dioxo-6,12-dihydroindolo[2,1-b]quinazoline-8-carboxylic Acid], the pIC50 (on IDO2 (setting [2]); in experiment [1]) was less than 6.30 throughout.
